Laboratory results reported in patent publication US20260376293A1, “METHODS FOR STUDYING GPR158 PHARMACOLOGY AND IDENTIFICATION OF ITS LIGANDS” (UNIVERSITY OF FLORIDA RESEARCH FOUNDATION, INCORPORATED, priority 2022, published 2026).
Where “and” joins values, the source holds several entries; their conditions need not be identical. Equal values may be shown once.

Target: T1, GPR158-RGS7/Gβ5 complex (Homo sapiens, UniProt Q5T848)
T1 construct: substituting amino acids to alanine in full-length GPR158; expressed in transfected cells; host or cells: HEK293FT
T1 sequence (Q5T848 24-1215): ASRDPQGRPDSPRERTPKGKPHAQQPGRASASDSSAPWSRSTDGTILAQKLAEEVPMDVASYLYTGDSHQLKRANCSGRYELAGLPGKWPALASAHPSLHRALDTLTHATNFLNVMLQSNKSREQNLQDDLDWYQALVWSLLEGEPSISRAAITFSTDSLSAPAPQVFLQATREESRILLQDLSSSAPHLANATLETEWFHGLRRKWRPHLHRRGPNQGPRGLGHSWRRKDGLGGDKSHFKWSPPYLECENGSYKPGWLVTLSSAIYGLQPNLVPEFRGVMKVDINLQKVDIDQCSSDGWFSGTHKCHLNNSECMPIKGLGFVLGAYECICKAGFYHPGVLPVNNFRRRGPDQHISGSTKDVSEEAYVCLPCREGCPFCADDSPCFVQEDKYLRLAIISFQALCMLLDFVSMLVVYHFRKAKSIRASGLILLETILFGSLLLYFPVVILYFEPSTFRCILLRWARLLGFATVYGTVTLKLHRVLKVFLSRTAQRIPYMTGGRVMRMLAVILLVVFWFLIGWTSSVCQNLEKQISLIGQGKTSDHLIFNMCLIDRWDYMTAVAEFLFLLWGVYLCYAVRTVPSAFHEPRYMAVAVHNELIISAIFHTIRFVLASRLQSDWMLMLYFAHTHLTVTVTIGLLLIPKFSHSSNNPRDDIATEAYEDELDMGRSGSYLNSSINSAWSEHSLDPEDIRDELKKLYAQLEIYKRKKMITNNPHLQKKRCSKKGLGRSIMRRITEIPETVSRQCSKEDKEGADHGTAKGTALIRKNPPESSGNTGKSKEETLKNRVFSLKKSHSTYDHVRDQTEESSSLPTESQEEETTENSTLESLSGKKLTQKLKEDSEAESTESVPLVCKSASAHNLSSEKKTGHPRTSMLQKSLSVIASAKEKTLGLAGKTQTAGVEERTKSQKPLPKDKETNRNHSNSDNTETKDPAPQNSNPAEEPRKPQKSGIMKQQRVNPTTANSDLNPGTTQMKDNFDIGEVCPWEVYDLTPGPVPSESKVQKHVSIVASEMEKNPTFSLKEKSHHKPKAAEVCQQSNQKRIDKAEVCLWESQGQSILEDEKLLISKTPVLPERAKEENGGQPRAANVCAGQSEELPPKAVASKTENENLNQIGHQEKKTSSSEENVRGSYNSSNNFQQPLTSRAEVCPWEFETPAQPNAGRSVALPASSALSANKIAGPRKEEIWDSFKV
T1 sequence (P49802 1-495 partner): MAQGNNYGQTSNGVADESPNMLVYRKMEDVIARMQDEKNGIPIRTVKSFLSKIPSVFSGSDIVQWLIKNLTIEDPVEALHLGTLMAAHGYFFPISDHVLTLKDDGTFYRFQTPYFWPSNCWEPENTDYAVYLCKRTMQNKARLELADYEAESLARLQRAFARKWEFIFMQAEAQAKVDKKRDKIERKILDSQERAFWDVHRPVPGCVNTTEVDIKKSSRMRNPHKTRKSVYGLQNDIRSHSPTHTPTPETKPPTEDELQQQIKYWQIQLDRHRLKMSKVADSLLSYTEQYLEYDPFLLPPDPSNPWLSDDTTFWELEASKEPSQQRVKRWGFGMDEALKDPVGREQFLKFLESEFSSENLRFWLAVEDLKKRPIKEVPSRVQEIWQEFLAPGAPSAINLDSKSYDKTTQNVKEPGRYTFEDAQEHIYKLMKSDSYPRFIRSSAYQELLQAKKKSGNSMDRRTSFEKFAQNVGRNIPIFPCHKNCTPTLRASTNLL
T1 sequence (O14775 1-395 partner): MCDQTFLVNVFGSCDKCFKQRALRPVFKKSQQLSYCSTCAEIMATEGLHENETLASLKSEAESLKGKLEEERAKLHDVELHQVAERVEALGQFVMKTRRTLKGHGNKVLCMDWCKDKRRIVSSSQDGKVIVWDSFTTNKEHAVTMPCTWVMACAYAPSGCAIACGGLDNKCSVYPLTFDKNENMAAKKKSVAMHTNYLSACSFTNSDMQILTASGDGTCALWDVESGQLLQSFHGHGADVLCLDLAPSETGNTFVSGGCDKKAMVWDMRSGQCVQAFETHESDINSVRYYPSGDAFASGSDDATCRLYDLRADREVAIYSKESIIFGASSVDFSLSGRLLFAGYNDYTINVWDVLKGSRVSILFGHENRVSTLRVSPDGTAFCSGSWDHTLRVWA
Assay: BRET GAP assay, Gαo deactivation (KGAP)
Format: cell-based
Settings: for IC50: GPR158/RGS7/Gβ5, Gαo, D2R, n=4 in triplicate, mean±s.e.m., read-out: IC50 (change in GAP activity, KGAP)
Protocol: FIGS. 3A-3D. Effect of taurine on Gαo deactivation mediated by GPR158-RGS7/Gβ5 complex. A and B) Representative traces of BRET signal showing Gαo activation mediated by D2R upon application of dopamine (100 μM) at t=0 s and Gαo deactivation triggered by injection of haloperidol (100 μM) at t=15 s (arrow). Time courses were examined without or with taurine (100 μM) incubation in mock transfected cells or cells transfected with GPR158. C) Quantification of deactivation time constant of the reactions presented in 3A and 3B. 1/τ is calculated from deactivation curves of 5 independent experiments each performed in triplicate for each transfection condition. Data shown represent mean±s.e.m. ****p<0.0001, ns=p>0.05 (two-way ANOVA). Columns with no fill (Mock), columns with dotted fill (Taurine) D) Dose response profile of changes in GAP activity (KGAP) calculated by subtracting the baseline deactivation rate (1/τ) from the rate of the reaction in the presence of the GPR158/RGS7/Gβ5. […] Data shown represent mean±s.e.m of 4 independent experiments each conduced in triplicate.
FIGS. 4A-4E. Glycine slows deactivation of Gαo by GPR158-RGS7/Gβ5 complex A) Schematics of the BRET-based GAP assay. G proteins are activated at t=0 s by stimulating GPCR (D2R, 0.1 mM). After reaching steady state the GPCR activity is terminated by injection of haloperidol (0.1 mM) at t=15 s (arrow). G protein deactivation is then monitored by dissociation of the Venus-Gβγ from masGRK3ct-Nluc reporter which occurs upon GTP hydrolysis by Gαo quenching the BRET signal. B and C) Representative traces of BRET signal showing Gαo activation and deactivation time course with or without glycine (100 μM) treatment in cells without GPR158 (b) or cells transfected with GPR158 (c). D) Quantification of deactivation time constant of the reactions presented in panels b and c. 1/τ is calculated from deactivation curves of n=5 independent experiments in triplicate from each cell transfection group. Data shown represent mean±s.e.m. ****p<0.0001, ns, p>0.05 (two-way ANOVA). Columns with no fill (Mock), columns with dotted fill (Glycine), columns with angled-line fill (Taurine) E) Dose response profile of changes in GAP activity (KGAP) calculated by subtracting the baseline deactivation rate (1/τ) from the rate of the reaction in the presence of the GPR158/RGS7/Gβ5. […] Data shown represent mean±s.e.m of n=4 independent experiments each conduced in triplicate.
To understand how glycine action on GPR158 regulates intracellular cAMP the inventors focused on GPR158 interaction with RGS7/Gβ5, an established GTPase Activating Protein (GAP) for the Gαi/o proteins (38) known to regulate cAMP production (39). The inventors used a well-established cell-based assay to monitor GAP activity by following kinetics of G protein deactivation (40) (FIG. 4A). In this assay, activation of G proteins by GDP/GTP exchange in response to GPCR stimulation generates the BRET signal upon interaction of liberated Venus-Gβγ subunits with the masGRK3CT-Nluc reporter.
Cellular measurements of BRET between Venus-Gβ1γ2 and masGRK3ct-Nluc were performed to examine GAP activity of RGS protein in living cells (described in detail in Masuho et al., 2015 (40)). Cells were co-transfected with the pcDNA3.1(+) plasmid coding for dopamine D2 receptor (1), GαoA (2), masGRK3ct-Nluc (1), Venus-156-239-Gβ1 (1), Venus-1-155-Gγ2 (1), and when indicated with RGS7/Gβ5 (2), GPR158 (1) (in parenthesis the ratio of transfected DNA). […]

Compound | IC50 | effect on Gαo deactivation (GPR158 co-expressed with RGS7/Gβ5, 100 μM) | effect on Gαo deactivation without GPR158 (baseline or RGS7/Gβ5 without GPR158, glycine 100 μM) | potency of taurine as compared to glycine (GAP assay IC50 comparison)
NCC(=O)O [glycine] | ~3 µM and 2.93 µM | significantly decelerated Gαo deactivation | no effect on either baseline Gαo deactivation or RGS7/Gβ5-assisted process | 
NCCS(=O)(=O)O [taurine, 2-aminoethanesulfonic acid] | ~6 µM and 5.89 µM |  |  | approximately two-fold lower potency
